From US7728146B2, “Enzyme inhibitors” (Probiodrug AG, priority 2006, dated 2010)
Where two headings read alike, the source gives them in different places.

Molecular target: DP IV (Homo sapiens, UniProt P27487)
Test: DP IV inhibition IC50, parallel-synthesis compounds tested directly following synthesis (without purification)
Assay type: biochemical
Design: IC50 DP4; other: tested directly following parallel synthesis, without purification; compounds of formula (Ib) from parallel synthesis, tested directly following synthesis
Procedure: Compounds were immediately tested regarding their activity as DP IV inhibitors.
Substances are screened for inhibition of dipeptidyl peptidase (DP IV) by their ability to inhibit the hydrolysis of the DP IV specific substrate Glycyl-Prolyl-4-Nitroanilide (Gly-Pro-pNA). All compounds are diluted in DMSO and IC50 will be determined with 11 serial dilutions (1:2) starting with an final concentration of 100 μM. The final DMSO concentration in the assay is 5% (v/v). The method was automated using a Tecan Genesis Freedom liquid handler and a Genius Pro (Tecan) microplate reader.
DP IV from porcine kidney (pDP IV) or recombinant human DP IV (rhDP IV) is diluted in HEPES buffer to a final activity of approximately 40-50 μU*ml^−1. The DP IV is stored in a cooling rack (4° C.) on the liquid handler.
The assay may becarried out at room temperature using Freedom liquid handler connected with a Genios Pro microplate reader. Each sample is measured in duplicate. Each sample stock solution is prediluted with DMSO in a ratio of 1:5 in a polypropylen 96-well plate. From this predilution 10 serial (1:2) dilutions in DMSO are prepared. 13.5 μl of the 11 DMSO dilutions and DMSO alone are transferred to the measurement microplate (duplicates) and 86.5 μl water, 100 μl HEPES buffer and 50 μl substrate solution are added to each well. The enzymatic reaction is started by addition of 20 μl enzyme solution to each well, and then the microplate is immediately transferred to the microplate reader.
After short mixing (20 s) the release of 4-Nitroanilin (pNA) is monitored at 405 nm for 30 cycles (approx. 18 min).
Post assay calculations are done by the Magellan (Tecan) and Graphit Software. The linear slopes are calculated for each well and averaged for the duplicates. The residue activities are calculated in relation to a sample containing only solvent instead of inhibitor and expressed in %. Residue activities are plotted against the log of inhibitor concentrations and IC50 is calculated by an 4-parameter fitting ranging from 0 to 100%.

[1] = DP IV inhibition, compounds of formula (Ib) from parallel synthesis, tested directly following synthesis (without purification), read-out: IC50
[2] = tested directly following parallel synthesis, without purification, read-out: IC50 DP4

Compound | IC50 [1] [µM] | IC50 [2] [µM]
C[C@H](N)c1c(-c2ccc(Cl)cc2Cl)ncn1CCc1c[nH]c2ccccc12 [103b, (S)-1-{5-(2,4-Dichloro-phenyl)-3-[2-(1H-indol-3-yl)-ethyl]-3H-imidazol-4-yl}-ethylamine] | 44.2 | –
NCCCc1c(-c2ccc(Cl)cc2Cl)ncn1CCc1c[nH]c2cc(Cl)ccc12 [105b, 3-[3-[2-(6-Chloro-1H-indol-3-yl)-ethyl]-5-(2,4-dichloro-phenyl)-3H-imidazol-4-yl]-propylamine] | 37.9 | –
CC(N)c1c(-c2ccc(Cl)cc2Cl)ncn1CCCCc1ccccc1 (stereo not shown) [106b, 1-[5-(2,4-Dichloro-phenyl)-3-(4-phenyl-butyl)-3H-imidazol-4-yl]-ethylamine] | 28 | –
NCCCc1c(-c2ccc(Cl)cc2Cl)ncn1CCc1cccc(Cl)c1 [107b, 3-[3-[2-(3-Chloro-phenyl)-ethyl]-5-(2,4-dichloro-phenyl)-3H-imidazol-4-yl]-propylamine] | 42.4 | –
CC(N)c1c(-c2ccc(Cl)cc2Cl)ncn1Cc1ccccc1 (stereo not shown) [109b, 1-[3-Benzyl-5-(2,4-dichloro-phenyl)-3H-imidazol-4-yl]-ethylamine] | 7.3 | –
C[C@H](N)c1c(-c2ccc(Cl)cc2Cl)ncn1CCc1c[nH]c2cc(F)ccc12 [110b, (S)-1-{5-(2,4-Dichloro-phenyl)-3-[2-(6-fluoro-1H-indol-3-yl)-ethyl]-3H-imidazol-4-yl}-ethylamine] | 42.4 | –
C[C@H](N)c1c(-c2ccc(Cl)cc2Cl)ncn1CCNc1ccc([N+](=O)[O-])cn1 [111b, {2-[5-((S)-1-Amino-ethyl)-4-(2,4-dichloro-phenyl)-imidazol-1-yl]-ethyl}-(5-nitro-pyridin-2-yl)-amine] | 21.7 | –
NCc1c(-c2ccc(Cl)cc2Cl)ncn1CCc1c[nH]c2cc(F)ccc12 [114b, C-{5-(2,4-Dichloro-phenyl)-3-[2-(6-fluoro-1H-indol-3-yl)-ethyl]-3H-imidazol-4-yl}-methylamine] | 3.7 | –
CCCCCn1cnc(-c2ccc(Cl)cc2Cl)c1C(C)N (stereo not shown) [115b, 1-[5-(2,4-Dichloro-phenyl)-3-pentyl-3H-imidazol-4-yl]-ethylamine] | 29.8 | –
Cc1ccc(Cn2cnc(-c3ccc(Cl)cc3Cl)c2C(C)N)cc1 (stereo not shown) [116b, 1-[5-(2,4-Dichloro-phenyl)-3-(4-methyl-benzyl)-3H-imidazol-4-yl]-ethylamine] | 23.5 | –
Clc1ccc(-c2ncn(CCc3ccccc3Cl)c2C2CNC2)c(Cl)c1 [117b, 5-Azetidin-3-yl-1-[2-(2-chloro-phenyl)-ethyl]-4-(2,4-dichloro-phenyl)-1H-imidazole] | 39.7 | –
NCc1c(-c2ccc(Cl)cc2Cl)ncn1Cc1cc(F)ccc1F [119b, C-[5-(2,4-Dichloro-phenyl)-3-(2,5-difluoro-benzyl)-3H-imidazol-4-yl]-methylamine] | 2.8 | –
CCn1cnc(-c2ccc(Cl)cc2Cl)c1CN [122b, C-[5-(2,4-Dichloro-phenyl)-3-ethyl-3H-imidazol-4-yl]-methylamine] | 46 | –
NCc1c(-c2ccc(Cl)cc2Cl)ncn1Cc1cc(Br)ccc1F [124b, C-[3-(5-Bromo-2-fluoro-benzyl)-5-(2,4-dichloro-phenyl)-3H-imidazol-4-yl]-methylamine] | 34.3 | –
NCc1c(-c2ccc(F)cc2Cl)ncn1Cc1cccs1 [Example 1a, C-[5-(2-Chloro-4-fluoro-phenyl)-3-thio-phen-2-yl-methyl-3H-imid-azol-4-yl]-methyl-amine] | – | 11.8
NCc1c(-c2ccc(F)cc2Cl)ncn1Cc1ccco1 [Example 2a, C-[5-(2-Chloro-4-fluoro-phenyl)-3-furan-2-yl-methyl-3H-imid-azol-4-yl]-methyl-amine] | – | 16.3
NCc1c(-c2ccc(F)cc2Cl)ncn1Cc1ccccc1Cl [Example 3a, C-[3-(2-Chloro-benzyl)-5-(2-chlo-ro-4-fluoro-phenyl)-3H-imid-azol-4-yl]-methyl-amine] | – | 18.1
Cc1ccc(Cn2cnc(-c3ccc(F)cc3Cl)c2CN)o1 [Example 4a, C-[5-(2-Chloro-4-fluo-ro-phenyl)-3-(5-meth-yl-furan-2-yl-methyl)-3H-imid-azol-4-yl]-methyl-amine] | – | 34.3
NCc1c(-c2ccc(F)cc2Cl)ncn1Cc1ccc(F)cc1 [Example 5a, C-[5-(2-Chloro-4-fluoro-phenyl)-3-(4-fluoro-benzyl)-3H-imid-azol-4-yl]-methyl-amine] | – | 10.9
NCc1c(-c2ccc(F)cc2Cl)ncn1Cc1cccc(C(F)(F)F)c1 [Example 6a, C-[5-(2-Chloro-4-fluoro-phenyl)-3-(3-tri-fluoromethyl-benzyl)-3H-imid-azol-4-yl]-methyl-amine] | – | 17.2
COc1cccc(Cn2cnc(-c3ccc(F)cc3Cl)c2CN)c1 [Example 9a, C-[5-(2-Chloro-4-fluoro-phenyl)-3-(3-methoxy-benzyl)-3H-imid-azol-4-yl]-methyl-amine] | – | 16.3
NCc1c(-c2ccc(F)cc2Cl)ncn1Cc1ccsc1 [Example 11a, C-[5-(2-Chloro-4-fluoro-phenyl)-3-thiophen-3-ylmethyl-3H-imidazol-4-yl]-methylamine] | – | 4.6
NCc1c(-c2ccc(F)cc2Cl)ncn1Cc1c(F)cccc1Cl [Example 13a, C-[3-(2-Chloro-6-fluoro-benzyl)-5-(2-chloro-4-fluoro-phenyl)-3H-imid-azol-4-yl]-methyl-amine] | – | 36.1
NCc1c(-c2ccc(F)cc2Cl)ncn1Cc1ccc2c(c1)OCO2 [Example 16a, C-[3-Ben-zo[1,3]di-oxol-5-yl-methyl-5-(2-chlo-ro-4-fluoro-phenyl)-3H-imid-azol-4-yl]-methyl-amine] | – | 28
NCc1c(-c2ccc(F)cc2Cl)ncn1Cc1ccc(F)c(F)c1 [Example 17a, C-[5-(2-Chloro-4-fluoro-phenyl)-3-(3,4-difluoro-benzyl)-3H-imid-azol-4-yl]-methyl-amine] | – | 19

Next, values leading:

IC50 [1] [µM] | IC50 [2] [µM] | Compound
19 | – | NCc1c(-c2ccc(Cl)cc2Cl)ncn1CCc1ccc(Cl)cc1 [102b, C-[3-[2-(4-Chloro-phenyl)-ethyl]-5-(2,4-dichloro-phenyl)-3H-imidazol-4-yl]-methylamine]
5.5 | – | NCc1c(-c2ccc(Cl)cc2Cl)ncn1Cc1ccccc1C(F)(F)F [108b, C-[5-(2,4-Dichloro-phenyl)-3-(2-trifluoromethyl-benzyl)-3H-imidazol-4-yl]-methylamine]
21.7 | – | NCc1c(-c2ccc(Cl)cc2Cl)ncn1CCc1ccc(O)cc1 [113b, 4-{2-[5-Aminomethyl-4-(2,4-dichloro-phenyl)-imidazol-1-yl]-ethyl}-phenol]
49.6 | – | CC(N)c1c(-c2ccc(Cl)cc2Cl)ncn1CCN1CCOCC1 (stereo not shown) [118b, 1-[5-(2,4-Dichloro-phenyl)-3-(2-morpholin-4-yl-ethyl)-3H-imidazol-4-yl]-ethylamine]
1.9 | – | NCc1c(-c2ccc(Cl)cc2Cl)ncn1Cc1c(F)cccc1Cl [123b, C-[3-(2-Chloro-6-fluoro-benzyl)-5-(2,4-dichloro-phenyl)-3H-imidazol-4-yl]-methylamine]
– | 27.1 | NCc1c(-c2ccc(F)cc2Cl)ncn1Cc1ccc(F)cc1F [Example 7a, C-[5-(2-Chloro-4-fluoro-phenyl)-3-(2,4-difluoro-benzyl)-3H-imid-azol-4-yl]-methyl-amine]
– | 48.7 | CCCn1cnc(-c2ccc(F)cc2Cl)c1CN [Example 8a, C-[5-(2-Chloro-4-fluoro-phenyl)-3-pro-pyl-3H-imid-azol-4-yl]-methyl-amine]
– | 14.5 | NCc1c(-c2ccc(F)cc2Cl)ncn1Cc1cccc(F)c1 [Example 10a, C-[5-(2-Chloro-4-fluoro-phenyl)-3-(3-fluoro-benzyl)-3H-imid-azol-4-yl]-methyl-amine]
– | 32.5 | NCc1c(-c2ccc(F)cc2Cl)ncn1Cc1cc(Br)ccc1F [Example 12a, C-[3-(5-Bromo-2-fluoro-benzyl)-5-(2-chloro-4-fluoro-phenyl)-3H-imid-azol-4-yl]-methyl-amine]
– | 19.9 | Cc1ccccc1Cn1cnc(-c2ccc(F)cc2Cl)c1CN [Example 14a, C-[5-(2-Chloro-4-fluoro-phenyl)-3-(2-methyl-benzyl)-3H-imid-azol-4-yl]-methyl-amine]
– | 10.9 | NCc1c(-c2ccc(F)cc2Cl)ncn1Cc1ccccc1 [Example 15, C-[3-Benzyl-5-(2-chloro-4-fluoro-phenyl)-3H-imid-azol-4-yl]-methyl-amine]
1.9 | – | NCc1c(-c2ccc(Cl)cc2Cl)ncn1CC1CCCO1 (stereo not shown) [Example 17b, C-[5-(2,4-dichloro-phenyl)-3-(tetrahydro-furan-2-ylmethyl)-3H-imidazol-4-yl]-methylamine]
